The supplement of paper PMC10307832

Key:
Assay in all cases: relative viability (nuclei count vs DMSO), 5 days (fraction); higher = more cells survive
[1] = compound: CC(C)C[C@H](NC(=O)[C@H](CCc1ccccc1)NC(=O)CN1CCOCC1)C(=O)N[C@@H](Cc1ccccc1)C(=O)N[C@@H](CC(C)C)C(=O)[C@@]1(C)CO1 [Carfilzomib] + CS(=O)(=O)N1CCN(Cc2cc3nc(-c4cccc5[nH]ncc45)nc(N4CCOCC4)c3s2)CC1 [Pictilisib] (partner 1 µM)
Outline: (§1)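 Lung cancer cell lines were seeded in 1536-well plates and dosed by pin tool the next day, with either a single drug or a fixed anchor-drug dose combined with five library-drug doses (not always all listed) spaced in √10 steps. Five days later, one step fixed the cells and stained their nuclei (final 0.05% Triton X-100, 1% formaldehyde, 1 ug/ml Hoechst), and nuclei were counted on 4× images. Relative viability is the nuclei count in treated wells divided by the count in vehicle wells, and each value is the median of duplicate plates.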

[2] = compound: C[C@@H](Oc1cc(-c2cnn(C3CCNCC3)c2)cnc1N)c1c(Cl)ccc(F)c1Cl [Crizotinib] + O=C(CCCCCCC(=O)Nc1ccccc1)NO [Vorinostat] (partner 1 µM)
Outline: as §1

[3] = compound: CC(C)C[C@H](NC(=O)[C@H](CCc1ccccc1)NC(=O)CN1CCOCC1)C(=O)N[C@@H](Cc1ccccc1)C(=O)N[C@@H](CC(C)C)C(=O)[C@@]1(C)CO1 [Carfilzomib] + O=C(c1cc(Cc2n[nH]c(=O)c3ccccc23)ccc1F)N1CCN(C(=O)C2CC2)CC1 [Olaparib] (partner 8 µM)
Outline: as §1

[4] = compound: C[C@@H](Oc1cc(-c2cnn(C3CCNCC3)c2)cnc1N)c1c(Cl)ccc(F)c1Cl [Crizotinib] + COc1cc2c(Oc3ccc(NC(=O)C4(C(=O)Nc5ccc(F)cc5)CC4)cc3F)ccnc2cc1OCCCN1CCOCC1 [Foretinib] (partner 0.25 µM)
Outline: as §1

## LC-2-ad
[1]; first compound 0.001 µM
  relative viability: 0.448
[1]; first compound 0.003162 µM
  relative viability: 0.525
[1]; first compound 0.01 µM
  relative viability: 0.455
[1]; first compound 0.03162 µM
  relative viability: 0.149
[1]; first compound 0.1 µM
  relative viability: 0.16
[2]; first compound 0.01 µM
  relative viability: 0.703
[2]; first compound 0.03162 µM
  relative viability: 0.656
[2]; first compound 0.1 µM
  relative viability: 0.699
[2]; first compound 1 µM
  relative viability: 0.704
[3]; first compound 0.001 µM
  relative viability: 0.673
[3]; first compound 0.003162 µM
  relative viability: 0.715
[3]; first compound 0.01 µM
  relative viability: 0.667
[3]; first compound 0.03162 µM
  relative viability: 0.637
[3]; first compound 0.1 µM
  relative viability: 0.237
[4]; first compound 0.01 µM
  relative viability: 0.839
[4]; first compound 0.03162 µM
  relative viability: 0.994
[4]; first compound 0.3162 µM
  relative viability: 0.884
[4]; first compound 1 µM
  relative viability: 0.877

## LCLC-97TM1
[1]; first compound 0.001 µM
  relative viability: 0.214
[1]; first compound 0.003162 µM
  relative viability: 0.223
[1]; first compound 0.01 µM
  relative viability: 0.122
[1]; first compound 0.03162 µM
  relative viability: 0.114
[1]; first compound 0.1 µM
  relative viability: 0.116
[2]; first compound 0.01 µM
  relative viability: 0.672
[2]; first compound 0.03162 µM
  relative viability: 0.697
[2]; first compound 0.1 µM
  relative viability: 0.686
[2]; first compound 0.3162 µM
  relative viability: 0.223
[2]; first compound 1 µM
  relative viability: 0.658
[3]; first compound 0.001 µM
  relative viability: 0.367
[3]; first compound 0.003162 µM
  relative viability: 0.527
[3]; first compound 0.01 µM
  relative viability: 0.318
[3]; first compound 0.03162 µM
  relative viability: 0.0498
[3]; first compound 0.1 µM
  relative viability: 0.0493
[4]; first compound 0.01 µM
  relative viability: 0.83
[4]; first compound 0.3162 µM
  relative viability: 0.959
[4]; first compound 1 µM
  relative viability: 0.801

## LCLC-103H
[1]; first compound 0.001 µM
  relative viability: 0.616
[1]; first compound 0.003162 µM
  relative viability: 0.659
[1]; first compound 0.01 µM
  relative viability: 0.718
[1]; first compound 0.03162 µM
  relative viability: 0.685
[1]; first compound 0.1 µM
  relative viability: 0.347
[2]; first compound 0.01 µM
  relative viability: 0.716
[2]; first compound 0.03162 µM
  relative viability: 0.869
[2]; first compound 0.1 µM
  relative viability: 0.841
[2]; first compound 0.3162 µM
  relative viability: 0.434
[2]; first compound 1 µM
  relative viability: 0.8
[3]; first compound 0.001 µM
  relative viability: 0.733
[3]; first compound 0.003162 µM
  relative viability: 0.781
[3]; first compound 0.01 µM
  relative viability: 0.793
[3]; first compound 0.03162 µM
  relative viability: 0.428
[3]; first compound 0.1 µM
  relative viability: 0.354
[4]; first compound 0.01 µM
  relative viability: 0.75
[4]; first compound 0.03162 µM
  relative viability: 0.732
[4]; first compound 0.1 µM
  relative viability: 0.727
[4]; first compound 0.3162 µM
  relative viability: 0.865
[4]; first compound 1 µM
  relative viability: 0.711

## LK-2
[1]; first compound 0.003162 µM
  relative viability: 0.826
[1]; first compound 0.01 µM
  relative viability: 0.64
[1]; first compound 0.03162 µM
  relative viability: 0.266
[1]; first compound 0.1 µM
  relative viability: 0.251
[2]; first compound 0.01 µM
  relative viability: 0.346
[2]; first compound 0.03162 µM
  relative viability: 0.29
[2]; first compound 0.1 µM
  relative viability: 0.314
[2]; first compound 0.3162 µM
  relative viability: 0.252
[2]; first compound 1 µM
  relative viability: 0.277
[3]; first compound 0.001 µM
  relative viability: 0.646
[3]; first compound 0.003162 µM
  relative viability: 0.661
[3]; first compound 0.01 µM
  relative viability: 0.86
[3]; first compound 0.03162 µM
  relative viability: 0.149
[3]; first compound 0.1 µM
  relative viability: 0.149
[4]; first compound 0.01 µM
  relative viability: 1.19
[4]; first compound 0.03162 µM
  relative viability: 1.42
[4]; first compound 0.1 µM
  relative viability: 1.2
[4]; first compound 1 µM
  relative viability: 1.27

## LOU-NH91
[1]; first compound 0.001 µM
  relative viability: 0.51
[1]; first compound 0.003162 µM
  relative viability: 0.525
[1]; first compound 0.01 µM
  relative viability: 0.477
[1]; first compound 0.03162 µM
  relative viability: 0.312
[1]; first compound 0.1 µM
  relative viability: 0.255
[2]; first compound 0.01 µM
  relative viability: 0.893
[2]; first compound 0.03162 µM
  relative viability: 0.927
[2]; first compound 0.1 µM
  relative viability: 0.989
[2]; first compound 1 µM
  relative viability: 0.836
[3]; first compound 0.001 µM
  relative viability: 0.923
[3]; first compound 0.003162 µM
  relative viability: 0.992
[3]; first compound 0.01 µM
  relative viability: 0.871
[3]; first compound 0.03162 µM
  relative viability: 0.34
[3]; first compound 0.1 µM
  relative viability: 0.287
[4]; first compound 0.01 µM
  relative viability: 0.917
[4]; first compound 0.03162 µM
  relative viability: 0.949
[4]; first compound 0.1 µM
  relative viability: 0.995
[4]; first compound 0.3162 µM
  relative viability: 0.921
[4]; first compound 1 µM
  relative viability: 0.98

## LU99A
[1]; first compound 0.001 µM
  relative viability: 0.349
[1]; first compound 0.003162 µM
  relative viability: 0.341
[1]; first compound 0.01 µM
  relative viability: 0.331
[1]; first compound 0.03162 µM
  relative viability: 0.238
[1]; first compound 0.1 µM
  relative viability: 0.151
[2]; first compound 0.01 µM
  relative viability: 0.448
[2]; first compound 0.03162 µM
  relative viability: 0.515
[2]; first compound 0.1 µM
  relative viability: 0.512
[2]; first compound 0.3162 µM
  relative viability: 0.459
[2]; first compound 1 µM
  relative viability: 0.507
[3]; first compound 0.001 µM
  relative viability: 0.287
[3]; first compound 0.003162 µM
  relative viability: 0.233
[3]; first compound 0.01 µM
  relative viability: 0.276
[3]; first compound 0.03162 µM
  relative viability: 0.168
[3]; first compound 0.1 µM
  relative viability: 0.137
[4]; first compound 0.01 µM
  relative viability: 0.74
[4]; first compound 0.03162 µM
  relative viability: 0.781
[4]; first compound 0.1 µM
  relative viability: 0.812
[4]; first compound 0.3162 µM
  relative viability: 0.788
[4]; first compound 1 µM
  relative viability: 0.766

## LXF-289
[1]; first compound 0.001 µM
  relative viability: 0.753
[1]; first compound 0.003162 µM
  relative viability: 0.776
[1]; first compound 0.01 µM
  relative viability: 0.644
[1]; first compound 0.03162 µM
  relative viability: 0.0604
[1]; first compound 0.1 µM
  relative viability: 0.0625
[2]; first compound 0.01 µM
  relative viability: 0.75
[2]; first compound 0.03162 µM
  relative viability: 0.799
[2]; first compound 0.1 µM
  relative viability: 0.757
[2]; first compound 0.3162 µM
  relative viability: 0.599
[2]; first compound 1 µM
  relative viability: 0.786
[3]; first compound 0.001 µM
  relative viability: 1.09
[3]; first compound 0.003162 µM
  relative viability: 1.19
[3]; first compound 0.01 µM
  relative viability: 1.07
[3]; first compound 0.03162 µM
  relative viability: 0.0687
[3]; first compound 0.1 µM
  relative viability: 0.0894
[4]; first compound 0.01 µM
  relative viability: 0.864
[4]; first compound 0.03162 µM
  relative viability: 1
[4]; first compound 0.1 µM
  relative viability: 1.01
[4]; first compound 0.3162 µM
  relative viability: 0.914
[4]; first compound 1 µM
  relative viability: 0.954

## NCI-H23
[1]; first compound 0.001 µM
  relative viability: 0.469
[1]; first compound 0.003162 µM
  relative viability: 0.551
[1]; first compound 0.01 µM
  relative viability: 0.436
[1]; first compound 0.03162 µM
  relative viability: 0.159
[1]; first compound 0.1 µM
  relative viability: 0.122
[2]; first compound 0.01 µM
  relative viability: 0.465
[2]; first compound 0.03162 µM
  relative viability: 0.648
[2]; first compound 0.1 µM
  relative viability: 0.596
[2]; first compound 1 µM
  relative viability: 0.737
[3]; first compound 0.001 µM
  relative viability: 0.365
[3]; first compound 0.003162 µM
  relative viability: 0.391
[3]; first compound 0.01 µM
  relative viability: 0.287
[3]; first compound 0.03162 µM
  relative viability: 0.0921
[3]; first compound 0.1 µM
  relative viability: 0.101
[4]; first compound 0.01 µM
  relative viability: 0.998
[4]; first compound 0.03162 µM
  relative viability: 0.905
[4]; first compound 0.1 µM
  relative viability: 1.01
[4]; first compound 1 µM
  relative viability: 0.936

## NCI-H322M
[1]; first compound 0.001 µM
  relative viability: 0.491
[1]; first compound 0.003162 µM
  relative viability: 0.507
[1]; first compound 0.01 µM
  relative viability: 0.567
[1]; first compound 0.03162 µM
  relative viability: 0.538
[1]; first compound 0.1 µM
  relative viability: 0.307
[2]; first compound 0.03162 µM
  relative viability: 0.884
[2]; first compound 0.1 µM
  relative viability: 1
[2]; first compound 0.3162 µM
  relative viability: 0.823
[2]; first compound 1 µM
  relative viability: 0.972
[3]; first compound 0.001 µM
  relative viability: 0.748
[3]; first compound 0.003162 µM
  relative viability: 0.681
[3]; first compound 0.01 µM
  relative viability: 0.771
[3]; first compound 0.03162 µM
  relative viability: 0.798
[3]; first compound 0.1 µM
  relative viability: 0.439
[4]; first compound 0.01 µM
  relative viability: 0.852
[4]; first compound 0.03162 µM
  relative viability: 1.04
[4]; first compound 0.1 µM
  relative viability: 0.947
[4]; first compound 0.3162 µM
  relative viability: 1.09
[4]; first compound 1 µM
  relative viability: 0.889
